According to publication PMC10254030, “Photoactivatable Heptamethine-Based Carbonic Anhydrase Inhibitors Leading to New Anti-Antibacterial Agents” (International Journal of Molecular Sciences, 2023):
Where two headings read alike, the source gives them in different places.

How the values were obtained:
MRC-5 cells = assay: cytotoxicity, MTT assay; format: cell-based, human; details: for IC50: MRC5, cytotoxicity, human lung fibroblasts, 24 h, MTT
Experimental: The cytotoxicity of the products was tested on MRC-5 cells (lung fibroblasts, ATCC CCL-171) with a seeding concentration of 10,000 cells/well. The products were diluted with a 2% FSC MEM medium (Sigma, M4655, Missouri, MO, USA) to concentrations ranging from 1 to 256 μg/mL and incubated with 80% confluent cells for 24 h. The following day, a 3-[4,5-dimethylthiazol-2-yl]-2,5-diphenyl tetrazolium bromide (MTT) assay was performed, and the optical density of the samples was measured at 540 nm.

PsCA1 = PsCA1 (Pseudomonas aeruginosa, UniProt Q9I730); assay: biochemical; details: stopped-flow CO2 hydrase assay, mean from 3 assays
Experimental: (§1) The CA isoforms belong to different classes of CA enzymes characterized by different kinetic and structural features to assess isoform selectivity.
(§2) An Applied Photophysics stopped-flow instrument was used to assay CA-catalyzed CO2 hydration activity. […] The uncatalyzed rates were determined in the same manner and subtracted from the total observed rates. Stock solutions of the inhibitor (0.1 mM) were prepared in distilled–deionized water, and dilutions up to 0.01 nM were done thereafter with the assay buffer. Inhibitor and enzyme solutions were preincubated together for 15 min at room temperature prior to the assay to allow for the formation of the E–I complex. The inhibition constants were obtained by non-linear least-squares methods using PRISM 3 and the Cheng–Prusoff equation as reported earlier and represent the mean from at least three different determinations. All CA isoforms were recombinant proteins obtained in house, as reported earlier.

PsCA3 = molecular target: T1, PsCA3 (Pseudomonas aeruginosa, UniProt Q9HVB9); assay: biochemical; details: stopped-flow CO2 hydrase assay, mean from 3 assays
T1 construct: made in house
T1 sequence (Q9HVB9 1-215): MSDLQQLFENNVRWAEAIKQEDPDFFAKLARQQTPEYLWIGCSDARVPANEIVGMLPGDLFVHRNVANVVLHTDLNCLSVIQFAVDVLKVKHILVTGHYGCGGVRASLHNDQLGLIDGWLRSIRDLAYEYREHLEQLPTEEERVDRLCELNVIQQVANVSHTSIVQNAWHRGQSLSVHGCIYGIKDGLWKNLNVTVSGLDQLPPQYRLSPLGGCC
Experimental: as §1, §2

hCA I = molecular target: T2, hCA I (Homo sapiens, UniProt P00915); assay: stopped-flow CO2 hydrase assay, hCA I; format: biochemical; details: for Ki: stopped-flow CO2 hydrase assay, pH 7.4, mean from 3 assays
T2 construct: made in house
Experimental: as §1, §2

S. aureus = assay: MIC and MBC test (NF EN ISO 20776-1), S. aureus; format: cell-based, Staphylococcus aureus; details: for MIC S. aureus / MIC: ATCC 29213, without irradiation; for MIC: Staphylococcus aureus, ATCC29213, light or radiation study; for MBC S. aureus: bacteriostatic or bactericidal effect, tested up to 8 × MIC
Experimental: (§3) Derivatives 2a–f were dissolved in DMSO and further diluted with distilled water to the required final concentration. The microorganisms (E. faecalis, S. aureus, and S. epidermidis reported in Table 4) were cultured overnight at 35 °C in Mueller Hinton Broth 2, Cation-Adjusted (BD, BD 212322, New York, NY, USA) and adjusted to 0.5 McFarland, according to standardized guidelines NF EN ISO 20776-1 [23]. The minimal inhibitory concentration (MIC) test was performed according to the standardized guidelines NF EN ISO 20776-1 [23]. Once the MIC was obtained, the minimal bactericidal concentration (MBC) test was performed.

hCA II = molecular target: T3, hCA II (Homo sapiens, UniProt P00918); assay: stopped-flow CO2 hydrase assay, hCA II; format: biochemical; details: pH 7.4, mean from 3 assays
T3 construct: made in house
Experimental: as §1, §2

S. epidermidis [1] = assay: MIC and MBC test (NF EN ISO 20776-1), S. epidermidis; format: cell-based, Staphylococcus epidermidis; details: for MIC S. epidermidis / MIC: ATCC 14990, without irradiation; for MIC: Staphylococcus epidermidis, ATCC14990, light or radiation study
Experimental: as §3

E. coli β = molecular target: T4, E. coli β (Escherichia coli, UniProt P61517); assay: stopped-flow CO2 hydrase assay, E. coli β; format: biochemical; details: pH 8.4, mean from 3 assays
T4 construct: made in house
Experimental: as §1
An Applied Photophysics stopped-flow instrument was used to assay CA-catalyzed CO2 hydration activity. Phenol red (at a concentration of 0.2 mM) was used as an indicator, working at the absorbance maximum of 557 nm, with 20 mM Hepes (pH 7.4 for α-class and pH 8.4 for β- and γ-classes) as a buffer and 20 mM Na2SO4 (to maintain constant the ionic strength), following the initial rates of the CA-catalyzed CO2 hydration reaction for a period of 10–100 s. The CO2 concentrations ranged from 1.7 to 17 mM for the determination of the kinetic parameters and inhibition constants. Enzyme concentrations ranged between 5 and 12 nM. For each inhibitor, at least six traces of the initial 5–10% of the reaction were used to determine the initial velocity. The uncatalyzed rates were determined in the same manner and subtracted from the total observed rates. Stock solutions of the inhibitor (0.1 mM) were prepared in distilled–deionized water, and dilutions up to 0.01 nM were done thereafter with the assay buffer. Inhibitor and enzyme solutions were preincubated together for 15 min at room temperature prior to the assay to allow for the formation of the E–I complex. The inhibition constants were obtained by non-linear least-squares methods using PRISM 3 and the Cheng–Prusoff equation as reported earlier and represent the mean from at least three different determinations. All CA isoforms were recombinant proteins obtained in house, as reported earlier.

E. faecalis = assay: MIC and MBC test (NF EN ISO 20776-1), E. faecalis; format: cell-based, Enterococcus faecalis; details: for MIC: Enterococcus faecalis; for MBC E. faecalis: bacteriostatic or bactericidal effect, tested up to 8 × MIC
Experimental: as §3

S. epidermidis [2] = assay: photoactivity assay, irradiation with 652 nm laser; format: cell-based, Staphylococcus epidermidis; details: 652 nm laser 47 min, 30 J/cm2, 2c and 2d at 64 μg/mL, others at MIC
Experimental: Upon incubation of 1.5–2 h with the products, the samples were irradiated for 47 min with a 652 nm laser (to obtain 1.70 W, 30 J/cm^2). Upon irradiation, the cells were plated and incubated overnight at 35 °C on Mueller Hinton Agar (BD, 225250, New York, NY, USA).

human red blood cells = assay: hemolysis assay; format: cell-based; details: 0.5–150 µg/mL, 30 min 37 °C, compared with 0.01% Tween 20
Experimental: Blood collected at CHU Nancy was washed three times with PBS, and 10^7 cells/mL were incubated for 30 min at 37 °C with the newly synthesized compounds. The derivatives were previously diluted to the range from 0.5 to 75/150 μg/mL with PBS. As a positive control, cells were resuspended with 0.01% polysorbate 20 (Tween 20). Tween 20 has often been used as a reference compound for cell lysis. Upon incubation, the samples were centrifuged for 5 min at 800× g, and the supernatant was collected for optical density reading at 540 nm.

E. coli γ = E. coli γ (Escherichia coli, UniProt P0A9W9); format: biochemical; details: stopped-flow CO2 hydrase assay, pH 8.4, mean from 3 assays
Experimental: as §1, §2

[3] = bacteriostatic or bactericidal effect, tested up to 8 × MIC
[4] = light or radiation study, clinical isolate, without irradiation, read-out: MIC E. faecalis
[5] = clinical isolate, without irradiation
[6] = span over the four compounds and both strains, read-out: MIC against the E. faecalis and S. aureus strains

T4 sequence (P61517 whole entry): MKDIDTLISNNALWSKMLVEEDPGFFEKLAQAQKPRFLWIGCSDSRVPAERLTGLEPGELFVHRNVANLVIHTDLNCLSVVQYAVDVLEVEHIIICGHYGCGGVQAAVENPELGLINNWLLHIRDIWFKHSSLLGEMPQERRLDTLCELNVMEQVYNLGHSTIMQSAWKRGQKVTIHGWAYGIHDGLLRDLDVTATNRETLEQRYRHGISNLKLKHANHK
PsCA1, sequence (Q9I730 entry or part of it): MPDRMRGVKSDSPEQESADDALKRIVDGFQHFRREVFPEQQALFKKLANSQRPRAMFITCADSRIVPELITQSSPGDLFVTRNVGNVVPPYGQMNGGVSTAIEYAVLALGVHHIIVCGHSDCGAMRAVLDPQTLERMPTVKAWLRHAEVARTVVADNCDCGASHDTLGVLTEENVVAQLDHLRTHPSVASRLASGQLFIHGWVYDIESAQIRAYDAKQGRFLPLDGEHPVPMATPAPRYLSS
T2 sequence (P00915 whole entry): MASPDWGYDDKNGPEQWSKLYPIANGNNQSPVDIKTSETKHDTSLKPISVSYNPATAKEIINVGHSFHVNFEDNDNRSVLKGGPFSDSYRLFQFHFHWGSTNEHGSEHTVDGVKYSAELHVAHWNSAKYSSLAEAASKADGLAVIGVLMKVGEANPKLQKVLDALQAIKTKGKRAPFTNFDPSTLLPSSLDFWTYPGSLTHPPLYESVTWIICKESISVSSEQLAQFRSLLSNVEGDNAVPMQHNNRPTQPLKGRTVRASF
E. coli γ, sequence (P0A9W9 whole entry): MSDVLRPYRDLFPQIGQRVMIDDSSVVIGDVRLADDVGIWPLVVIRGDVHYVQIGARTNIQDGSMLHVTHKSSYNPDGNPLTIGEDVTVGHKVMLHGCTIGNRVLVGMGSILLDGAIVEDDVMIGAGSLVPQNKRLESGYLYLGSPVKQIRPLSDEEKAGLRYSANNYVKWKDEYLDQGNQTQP

Row | Structure (SMILES) | IC50 (MRC-5 cells) | Ki (PsCA1) | Ki (PsCA3) | Ki (hCA I) | MIC S. aureus (S. aureus) | MIC (S. aureus) | MBC S. aureus (S. aureus) | Ki (hCA II) | MIC S. epidermidis (S. epidermidis [1]) | MIC (S. epidermidis [1]) | MBC S. epidermidis (S. epidermidis [1]; Table 3) | MBC S. epidermidis (S. epidermidis [1]; [3]) | Ki (E. coli β) | MIC (E. faecalis; [4]) | MBC E. faecalis (E. faecalis) | MIC E. faecalis (E. faecalis; [5]) | Growth Reduction (S. epidermidis [2]) | hemolysis activity, cytotoxicity to human red blood cells (human red blood cells) | Ki (E. coli γ) | MIC (E. faecalis; [6]) | further results
1 | CC1(C)C(/C=C/C2=C(NCCNC(=O)Nc3ccc(S(N)(=O)=O)cc3)C(=C/C=C3\N(CCCCS(=O)(=O)O)c4ccc5ccccc5c4C3(C)C)/CCC2)=[N+](CCCCS(=O)(=O)[O-])c2ccc3ccccc3c21 [Compound 2d] | > 256 µg/mL | 88.7 nM | 81 nM | 923 nM | over 256 µg/mL | > 256 µg/mL | > 256 µg/mL | 183 nM | over 256 µg/mL | > 256 µg/mL | > 256 µg/mL | > 256 µg/mL | 69.8 nM | > 256 µg/mL | > 256 µg/mL | over 256 µg/mL | 1 log reduction | significant cytotoxicity | 111 nM | – | –
2 | CN1C(=CC=C2CCCC(C=CC3=[N+](C)c4ccc5ccccc5c4C3(C)C)=C2NCCNC(=O)Nc2ccc(S(N)(=O)=O)cc2)C(C)(C)c2c1ccc1ccccc21 [Compound 2f] | 78.8 µg/mL | 58.3 nM | 94.5 nM | 3900 nM | – | 16 to 64 µg/mL | bacteriostatic | 625 nM | – | 2 to 8 µg/mL | bacteriostatic | bacteriostatic | 64.9 nM | 32 to 128 µg/mL | bactericidal | – | 1 log reduction | not cytotoxic | 124 nM | 8 to 128 µg/mL | selectivity for all assayed bacterial isoforms (hCA I; bacterial CA isoforms versus the human off-target hCA I and II): ~10 fold; selectivity index (SI) against S. epidermidis (S. epidermidis [1]; ratio between cytotoxicity in μg/mL and the MIC value in μg/mL): highest SI
3 | CC1(C)C(/C=C/C2=C(NCCc3ccc(S(N)(=O)=O)cc3)C(=C/C=C3\N(CCCCS(=O)(=O)O)c4ccc5ccccc5c4C3(C)C)/CCC2)=[N+](CCCCS(=O)(=O)[O-])c2ccc3ccccc3c21 [Compound 2c] | > 256 µg/mL | 64.8 nM | 76.8 nM | 529 nM | over 256 µg/mL | > 256 µg/mL | > 256 µg/mL | 91 nM | over 256 µg/mL | > 256 µg/mL | > 256 µg/mL | > 256 µg/mL | 60.2 nM | > 256 µg/mL | > 256 µg/mL | over 256 µg/mL | 1 log reduction | significant cytotoxicity | 117 nM | – | –
4 | CN1C(=CC=C2CCCC(C=CC3=[N+](C)c4ccc5ccccc5c4C3(C)C)=C2NCCc2ccc(S(N)(=O)=O)cc2)C(C)(C)c2c1ccc1ccccc21 [Compound 2e] | 2 µg/mL | 71.1 nM | 77.7 nM | 861 nM | – | 8 to 32 µg/mL | bactericidal | 160 nM | – | 1 to 4 µg/mL | bactericidal | bactericidal | 74.1 nM | 16 to 64 µg/mL | bactericidal | – | – | not cytotoxic | 110 nM | 8 to 128 µg/mL | –
5 | CCCN1C(=CC=C2CCCC(C=CC3=[N+](CCC)c4ccccc4C3(C)C)=C2NCCc2ccc(S(N)(=O)=O)cc2)C(C)(C)c2ccccc21 [Compound 2a] | 38.5 µg/mL | 60.4 nM | 89.4 nM | 410 nM | – | 8 to 32 µg/mL | bacteriostatic | 163 nM | – | 4 to 16 µg/mL | bactericidal | bactericidal | 54.8 nM | 16 to 64 µg/mL | bactericidal | – | 1 log reduction | not cytotoxic | 120 nM | 8 to 128 µg/mL | fold less toxic than 2e (MRC-5 cells; MRC-5 IC50 compared with 2e): 19 fold
